19 compounds from patent publication US10683292B2, “Purine and 3-deazapurine analogues as choline kinase inhibitors” (NERVIANO MEDICAL SCIENCES S.R.L., priority 2016, dated 2020) can be followed below.

The test system of test [1] is MDA-MB-468 breast cancer cell line. The experiment in a line: Phosphocholine determination assay (mechanism of action in cells), cell extracts. The format is cell-based. The settings on record: 24 h.
Experimental: Phosphocholine Determination Assay (Mechanism of Action in Cells)
After 24 h, fresh medium and a compound of general formula (I) were added for further 24 h. At the end of the treatment, the cells were trypsinised, counted and the diameter was determined using a Coulter Counter (Multisizer 3, Beckman). […] Then, 0.7 mL ice-cold absolut EtOH were added (final ratio EtOH/H2O 70:30, v/v). After 24 h at −20° C. the samples were sonicated and centrifuged at 14,000×g for 30 minutes.
Phosphocholine concentration levels were assessed in the supernatants using an Ultra High Pressure Liquid Chromatography system (UPLC®, Waters) coupled with a triple quadrupoles mass spectrometer (TQD, Waters) operating in single reaction monitoring mode (SRM). Analyses were performed using Acquity HSS T3 column 2.1×50 mm column, 1.8 μm particle size. […] Waters TQD triple quad mass spectrometer was equipped with an electrospray ion source operating in the positive mode. Source parameters were set as follows: desolvation gas flow 1000 L/h, cone gas flow 50 L/h; collision gas flow 0.2 mL/min; source temperature 130° C.; desolvation temperature 450° C. Dimethyl glicine (DMG) was added to samples as internal standard at 100 μM final concentration. […] The concentration of PCho in the sample was normalized to the total volume of cells (number cells×volume of single cell considered like a sphere).
For another test, the target named is T1, hChoKβ FL (Homo sapiens, UniProt Q9Y259).
T1 construct: hChoKβ full length (FL), corresponding to aminoacids 2-395; GST (N, cleaved yes); Prescission Protease recognition site (N, cleaved yes); made in house; host or cells: Escherichia coli BL21pLysS (DE3)
The test can be described thus: Biochemical kinase inhibition assay (Kinase-Glo Luminescent Kinase Assay) on hChoKβ FL. The settings on record: ATP 5 μM, choline 20 μM, 60 minutes at rt; read-out: IC50 ChoKβ.

Test [2] has as its system MDA-MB-468 breast cancer cell line. The test can be described thus: Phosphocholine determination in cell medium culture (cell supernatants). The format is cell-based. The settings on record: compound 2 μM. How it is done:
For the determination of phosphocholine in cells, extracts were prepared according to ref. Cancer Res., 2005, 65, 9369-9376 with some modifications. MDA-MB-468 breast cancer cell line was plated at 1×10^6 cells in 10 cm petri dish culture in RPMI, 10% FCS culture medium. After 24 h, fresh medium and a compound of general formula (I) were added for further 24 h. At the end of the treatment, the cells were trypsinised, counted and the diameter was determined using a Coulter Counter (Multisizer 3, Beckman). Cells were washed twice with ice-cold physiologic saline solution and 2×10^6 cells resuspended in 0.3 mL ice-cold twice-distilled water. […]
Phosphocholine concentration levels were assessed in the supernatants using an Ultra High Pressure Liquid Chromatography system (UPLC®, Waters) coupled with a triple quadrupoles mass spectrometer (TQD, Waters) operating in single reaction monitoring mode (SRM). […] The monitored transitions were m/z 184.00 to 85.7 (collision energy 24 eV) for phosphocholine and m/z 103.0 to 57.5 (collision energy 13 eV) for DMG. […]
For the determination of phosphocholine in cell medium culture, cell culture supernatants (500 μL) were denatured by adding 100 μL of trichloroacetic acid (TCA) 1M containing dimethyl glicine (DMG) (100 μM), used as internal standard. […] The supernatants were subsequently analyzed for phosphocholine determination.

The next test concerns the target T2, Δ49N-hChoKα (Homo sapiens, UniProt P35790).
T2 construct: cDNA fragment 362-1534, corresponding to aminoacids 50-457; GST (N, cleaved yes); Prescission Protease recognition site (N, cleaved yes); made in house; host or cells: Escherichia coli BL21pLysS (DE3)
The test can be described thus: Biochemical kinase inhibition assay (Kinase-Glo Luminescent Kinase Assay) on Δ49N-hChoKα.

Where [3] appears, read: ATP 5 μM, choline 5 μM, 60 minutes at rt, read-out: IC50 ChoKα.

Where a name gives a salt, the structure may show the parent alone. Read-outs that look alike come from different tables or passages of the source.

T2 sequence (P35790 50-457, stated change not applied): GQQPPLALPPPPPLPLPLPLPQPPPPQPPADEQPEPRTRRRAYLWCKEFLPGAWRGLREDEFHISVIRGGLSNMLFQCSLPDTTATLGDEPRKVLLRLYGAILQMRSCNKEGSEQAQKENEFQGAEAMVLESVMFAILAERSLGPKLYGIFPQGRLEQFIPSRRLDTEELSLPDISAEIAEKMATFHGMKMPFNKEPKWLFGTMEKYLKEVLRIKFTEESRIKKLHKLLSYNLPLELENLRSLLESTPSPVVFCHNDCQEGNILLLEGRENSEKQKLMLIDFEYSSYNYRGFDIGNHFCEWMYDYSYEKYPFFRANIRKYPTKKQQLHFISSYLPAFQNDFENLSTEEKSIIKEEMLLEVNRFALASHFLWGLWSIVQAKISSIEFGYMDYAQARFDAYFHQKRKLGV
T1 sequence (Q9Y259 2-395): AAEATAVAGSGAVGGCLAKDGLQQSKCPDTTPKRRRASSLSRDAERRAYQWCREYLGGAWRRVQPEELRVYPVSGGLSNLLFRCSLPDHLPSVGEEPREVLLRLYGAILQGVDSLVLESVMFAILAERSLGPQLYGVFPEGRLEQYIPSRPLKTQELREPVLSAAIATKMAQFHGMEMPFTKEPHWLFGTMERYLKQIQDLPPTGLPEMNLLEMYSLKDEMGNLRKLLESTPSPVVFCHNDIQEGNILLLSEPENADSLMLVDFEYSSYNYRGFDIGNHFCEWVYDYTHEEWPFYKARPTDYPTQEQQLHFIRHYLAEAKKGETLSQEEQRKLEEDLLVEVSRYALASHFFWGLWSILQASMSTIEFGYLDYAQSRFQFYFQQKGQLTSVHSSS
Experimental for hChoKβ FL: The biochemical activity of compounds against Δ49N-ChoKα and ChoKβ FL were determined using the Kinase-Glo™ Luminescent Kinase Assay (Promega cat. V6711).
Compounds were 3-fold serially diluted from 10 to 0.0005 μM, then incubated for 60 minutes at rt in the presence of ATP 5 μM, choline (5 μM for ChoKα and 20 μM for ChoKβ) and enzyme in a final volume of 19 μL of kinase buffer (50 mM Hepes pH 7.5, 10 mM MgCl2, 1 mM DTT, 3 μM Na3VO4 and 0.2 mg/mL BSA). The final concentration of DMSO was 1%.
At the end of the incubation, an amount of 19 μL of KinaseGlo Reagent was added to each well to stop the reaction and after 30 minutes the luminescence signal was measured using ViewLux reader (Perkin Elmer).
The data per each molecule are analyzed by an internally customized version of the SW package “Assay Explorer” which provides sigmoidal fittings of the ten-dilution curves for IC50 determination using a 4 parameter logistic equation: y=bottom+(top−bottom)/(1+10^((log IC50−x)*slope)) where x is the logarithm of the inhibitor concentration, y is the response; y starts at bottom and goes to top with a sigmoid shape.

`Nc1nc(Cl)nc2c1ncn2[C@H]1CC[C@@H](C(=O)Nc2ncc(Cl)s2)CC1` [cpd 114, cis-4-(6-amino-2-chloro-9H-purin-9-yl)-N-(5-chloro-1,3-thiazol-2-yl)cyclohexanecarboxamide] returned an inhibition at 0.4 µM in test [1] (Homo sapiens, MDA-MB-468, compound 0.4 μM, vs untreated control) of 37%. Besides, the inhibition at 2 µM worked out at 76% in test [1] (Homo sapiens, MDA-MB-468, compound 2 μM, vs untreated control) and 66% in test [2] (Homo sapiens, MDA-MB-468, vs untreated control). Further, the “[Phosphocholine] in MDA-MB-468 cell extracts” value in test [1] (compound 0.4 μM) turned out to be 5.21 mM; in test [1] (compound 2 μM), 1.98 mM. Also, the IC50 at hChoKβ FL came to 4.69 µM; at Δ49N-hChoKα (setting [3]), 34 nM. Besides, the “[Phosphocholine] in MDA-MB-468 cell supernatants” value in test [2] is 2.50 µM.
In the case of `CN1CCc2nc(NC(=O)[C@H]3CC[C@@H](n4cnc5c(N)nc(F)nc54)CC3)sc2C1` [cpd 179, cis-4-(6-amino-2-fluoro-9H-purin-9-yl)-N-(5-methyl-4,5,6,7-tetrahydro[1,3]thiazolo[5,4-c]pyridin-2-yl)cyclohexanecarboxamide], the “[Phosphocholine] in MDA-MB-468 cell extracts” value is recorded as 6.40 mM in test [1] (compound 0.08 μM), 3.27 mM in test [1] (compound 0.4 μM) and 0.69 mM in test [1] (compound 2 μM).
With `Nc1nc(Cl)nc2c1ncn2[C@H]1CC[C@@H](C(=O)Nc2nc3ccc(OC(F)(F)F)cc3s2)CC1` [cpd 181, cis-4-(6-amino-2-chloro-9H-purin-9-yl)-N-[6-(trifluoromethoxy)-1,3-benzothiazol-2-yl]cyclohexanecarboxamide], the IC50 at hChoKβ FL is greater than 10 µM; on Δ49N-hChoKα (setting [3]), 66 nM.
As to `CC(=O)Nc1ccc2nc(NC(=O)[C@H]3CC[C@@H](n4cnc5c(N)nc(Cl)nc54)CC3)sc2c1` [cpd 183, cis-N-[6-(acetylamino)-1,3-benzothiazol-2-yl]-4-(6-amino-2-chloro-9H-purin-9-yl)cyclohexanecarboxamide], the IC50 at hChoKβ FL was determined as 1.99 µM; at Δ49N-hChoKα (setting [3]), 17 nM.
`Nc1nc(Cl)nc2c1ncn2[C@H]1CC[C@@H](C(=O)Nc2nc3cc4c(cc3s2)OCO4)CC1` [cpd 186, cis-4-(6-amino-2-chloro-9H-purin-9-yl)-N-([1,3]dioxolo[4,5-f][1,3]benzothiazol-6-yl)cyclohexanecarboxamide]: the IC50 at hChoKβ FL is 5.47 µM; at Δ49N-hChoKα (setting [3]), 43 nM.
As to `CC(C)(C)OC(=O)N1[C@H]2CC[C@@H]1c1sc(NC(=O)[C@H]3CC[C@@H](n4cnc5c(N)nc(Cl)nc54)CC3)nc1C2` [cpd 187, tert-butyl (5S,8R)-2-({[cis-4-(6-amino-2-chloro-9H-purin-9-yl)cyclohexyl]carbonyl}amino)-5,6,7,8-tetrahydro-4H-5,8-epiminocyclohepta[d][1,3]thiazole-9-carboxylate], the IC50 on hChoKβ FL was determined as 5.63 µM; on Δ49N-hChoKα, 29 nM.
Regarding `Nc1nc(Cl)nc2c1ncn2[C@H]1CC[C@@H](C(=O)Nc2nc3c(s2)CC(F)(F)CC3)CC1` [cpd 188, cis-4-(6-amino-2-chloro-9H-purin-9-yl)-N-(6,6-difluoro-4,5,6,7-tetrahydro-1,3-benzothiazol-2-yl)cyclohexanecarboxamide], the IC50 was greater than 10 µM on hChoKβ FL and 9 nM at Δ49N-hChoKα (setting [3]).
As to `Nc1nc(Cl)nc2c1ncn2[C@H]1CC[C@@H](C(=O)Nc2nc3c(s2)[C@H]2CC[C@@H](C3)N2)CC1` [cpd 189, cis-4-(6-amino-2-chloro-9H-purin-9-yl)-N-[(5S,8R)-5,6,7,8-tetrahydro-4H-5,8-epiminocyclohepta[d][1,3]thiazol-2-yl]cyclohexanecarboxamide hydrochloride], the concentration for half-maximal inhibition (IC50) is greater than 10 µM on hChoKβ FL and 27 nM on Δ49N-hChoKα.
On to `Nc1nc(F)nc2c1ncn2[C@H]1CC[C@@H](C(=O)Nc2nc3c(s2)CC(F)(F)CC3)CC1` [cpd 191, cis-4-(6-amino-2-fluoro-9H-purin-9-yl)-N-(6,6-difluoro-4,5,6,7-tetrahydro-1,3-benzothiazol-2-yl)cyclohexanecarboxamide], for which the IC50 was greater than 10 µM on hChoKβ FL and 11 nM on Δ49N-hChoKα (setting [3]).
For `CC1(C)Cc2nc(NC(=O)[C@H]3CC[C@@H](n4cnc5c(N)nc(Cl)nc54)CC3)sc2CO1` [cpd 195, cis-4-(6-amino-2-chloro-9H-purin-9-yl)-N-(6,6-dimethyl-6,7-dihydro-4H-pyrano[4,3-d][1,3]thiazol-2-yl)cyclohexanecarboxamide] the same measures were 6.11 µM and 24 nM.
For `NC(=O)CN1CCc2nc(NC(=O)[C@H]3CC[C@@H](n4cnc5c(N)nc(Cl)nc54)CC3)sc2C1` [cpd 196, cis-4-(6-amino-2-chloro-9H-purin-9-yl)-N-[5-(2-amino-2-oxoethyl)-4,5,6,7-tetrahydro[1,3]thiazolo[5,4-c]pyridin-2-yl]cyclohexanecarboxamide] the same measures were greater than 10 µM and 26 nM.
For `COc1cccc(NC(=O)N[C@H]2CC[C@@H](n3cnc4c(N)nc(Cl)nc43)CC2)c1` [cpd 197, 1-[cis-4-(6-amino-2-chloro-9H-purin-9-yl)cyclohexyl]-3-(3-methoxyphenyl)urea] the same measures were 6.09 µM and 306 nM.
For `CN1CCc2nc(NC(=O)[C@H]3CC[C@@H](n4cnc5c(N)nc(I)nc54)CC3)sc2C1` [cpd 198, cis-4-(6-amino-2-iodo-9H-purin-9-yl)-N-(5-methyl-4,5,6,7-tetrahydro[1,3]thiazolo[5,4-c]pyridin-2-yl)cyclohexanecarboxamide], the IC50 is greater than 10 µM at hChoKβ FL and 33 nM on Δ49N-hChoKα (setting [3]).
As to `CN1CCc2nc(NC(=O)[C@H]3CC[C@@H](n4cnc5c(N)nc(C#C[Si](C)(C)C)nc54)CC3)sc2C1` [cpd 199, cis-4-{6-amino-2-[(trimethylsilyl)ethynyl]-9H-purin-9-yl}-N-(5-methyl-4,5,6,7-tetrahydro[1,3]thiazolo[5,4-c]pyridin-2-yl)cyclohexanecarboxamide], the IC50 on hChoKβ FL was greater than 10 µM; against Δ49N-hChoKα, 67 nM.
Consider `Nc1nc(F)nc2c1ncn2[C@H]1CC[C@@H](C(=O)Nc2nc3c(s2)COCC3)CC1` [cpd 200, cis-4-(6-amino-2-fluoro-9H-purin-9-yl)-N-(6,7-dihydro-4H-pyrano[4,3-d][1,3]thiazol-2-yl)cyclohexanecarboxamide], for which the IC50 at hChoKβ FL was greater than 10 µM; on Δ49N-hChoKα (setting [3]), 24 nM.
The matching figures for `C#Cc1nc(N)c2ncn([C@H]3CC[C@@H](C(=O)Nc4nc5c(s4)CN(C)CC5)CC3)c2n1` [cpd 201, cis-4-(6-amino-2-ethynyl-9H-purin-9-yl)-N-(5-methyl-4,5,6,7-tetrahydro[1,3]thiazolo[5,4-c]pyridin-2-yl)cyclohexanecarboxamide]: greater than 10 µM and 19 nM.
The matching figures for `Cc1csc(NC(=O)[C@H]2CC[C@@H](n3cnc4c(N)nccc43)CC2)n1` [cpd 204, cis-4-(4-amino-1H-imidazo[4,5-c]pyridin-1-yl)-N-(4-methyl-1,3-thiazol-2-yl)cyclohexanecarboxamide]: greater than 10 µM and 1810 nM.
For `Nc1nc(Cl)nc2c1ncn2[C@H]1CC[C@@H](C(=O)Nc2nc3c(s2)CCCC3)CC1` [cpd 205, cis-4-(6-amino-2-chloro-9H-purin-9-yl)-N-(4,5,6,7-tetrahydro-1,3-benzothiazol-2-yl)cyclohexanecarboxamide] the same measures were 5.2 µM and 15 nM.
For the compound `Nc1nc(F)nc2c1ncn2[C@H]1CC[C@@H](C(=O)Nc2nc3c(s2)CCCC3)CC1` [cpd 206, cis-4-(6-amino-2-fluoro-9H-purin-9-yl)-N-(4,5,6,7-tetrahydro-1,3-benzothiazol-2-yl)cyclohexanecarboxamide], the IC50 on hChoKβ FL was greater than 10 µM; at Δ49N-hChoKα (setting [3]) it was 16 nM.
